Measured values: publication PMC13538185, “The PSD-95 inhibitor NA-1 is delivered to the brain upon nasal administration with uptake into the olfactory bulb improved by co-administration with the cell-penetrating peptides lowPro and Tat” (Drug Delivery and Translational Research, 2025)

Columns and labels:
[1] = not given; remark: listed apart in the source
[2] = not given; remark: listed apart in the source
[3] = Biodistribution after intravenous bolus injection to mice (reference group); conditions: mouse, in vivo, iv, 3 nmol/g body weight
Protocol: (§1) In an intravenous reference group, NA-1 was administered as a bolus injection (3 nmol/g body weight in 0.9% NaCl) into the tail vein. After 60 min compound circulation, the animals were transcardially perfused with 0.01 M PBS (pH 7.4). The brain, olfactory bulb, heart, lungs, spleen, kidneys, liver, and 2–3 cm of the upper part of duodenum were collected in 2 mL tubes and stored at -70 °C until analysis. […] The homogenate was spun down for 10 min at 14,000 rpm and 4 °C in a Sigma 1–15 K centrifuge (DJB Labcare, Newport Pagnell, England). […] Biodistribution of NA-1 was assessed by measuring the selenium content in tissue digested in HNO3 for 3–5 days at room temperature (50 mg tissue per 0.5 mL HNO3 for heart, lungs, spleen, kidney, and duodenum or 0.2 mL HNO3 for olfactory bulb and 1 mL HNO3 for the remaining brain. The tissue samples were spun down for 5 min at 10,000 rpm in a Sigma 1–15 K centrifuge (DJB Labcare, Newport Pagnell, England) before dilution (1:5–1:32) in 5% methanol with 0.1% trifluoroacetic acid in ultrapure water. The samples were analyzed with ICP-MS as described for transport studies, but with a 20 µL injection volume and a 2 min run time.

NMRI mice [4] = assay: as above; conditions: mice, 3 nmol/g, 1 h
Protocol: as §1

NMRI mice [5] = conditions: nasal
[6] = test system: primary porcine olfactory epithelial monolayers; assay: Transport of NA-1 alone or co-administered with cell-penetrating peptides across primary porcine olfactory epithelial monolayers (ICP-MS of selenium); format: in vitro ADME
Excerpt: Oxygen was applied as reaction gas.

[7] = test system: primary porcine olfactory epithelial cells; assay: Cellular metabolic activity (XTT assay); format: cell-based; conditions: 4 h incubation with 50 or 100 µM peptide in transport medium, 37 °C, N = 3, n = 3
Protocol: The cellular metabolic activity was assessed on olfactory epithelial cells cultured in a 96-well plate for 48 h using a commercially available sodium 3´-[1-(phenylaminocarbonyl)-3,4-tetrazolium]-bis (4-methoxy-6-nitro) benzene sulfonic acid hydrate (XTT) assay as directed by the manufacturer. […] Cells incubated with transport medium (MEM w/o phenol red, 0.05% BSA, 0.1 U/mL Penicillin, 0.1 µg/mL Streptomycin) without peptides served as live cell controls and wells with transport medium but no cells served as dead cell controls. After peptide incubation, the cells were gently washed twice with transport medium before incubation with 100 µL transport medium and 50 µL XTT labelling mixture (electron-coupling reagent: XTT labelling reagent 1:50) for 1 h at 37 °C with horizontal shaking (90 rpm). Samples (100 µL) from each well were transferred to a new 96-well plate and the absorbance was measured at 466 nm using a SPECTROstar Nano plate reader (BMG Labtech, Ortenberg, Germany). The relative cellular viability was calculated by Eq. 1:1

[8] = test system: primary porcine olfactory epithelial monolayers; conditions: ALI 20-21 days, apical to basolateral, 0.5 mg/mL in transport medium (MEM, 0.05% BSA), 37 °C, fluorescence read-out, mean (N = 3-4, n = 3)
Protocol: Transport studies were performed on olfactory epithelial cell monolayers cultured for 20 or 21 days under ALI conditions. […] 50 µL samples were withdrawn at time points 0.5, 1, 1.5, 2, 3, 4, and 24 h into black clear-bottom 96-well plates. The sampling volume was immediately replaced with 37 °C transport medium. […] The experiments with NA-1 and the cell-penetrating peptides were initiated by gently applying 300 µL samples (50 µM NA-1 alone or co-administered with 50 µM Tat, LowPro, or PenShuf) in 37 °C transport buffer to the apical compartment. 75 µL samples were withdrawn at time points 1, 2, 3, and 16 h into glass vials. The sampling volume was immediately replaced with 37 °C transport buffer. NA-1 was labelled with selenomethionine (M^Se) between the Tat and the NR2B9c moiety to facilitate analysis through selenium quantification using inductively coupled plasma mass spectrometry (ICP-MS). For selenium analysis, the samples were subjected to flow injection analysis on a Dionex Ultimate 3000 UPLC (Thermo Fischer Scientific, Germering, Germany) with ICP-MS detection using an Agilent 8800 Triple Quad equipped with a 2.5 mm quartz torch with platinum sampler -and skimmer cones (Agilent Technologies, Santa Clara, CA, USA).

[9] = test system: primary porcine olfactory epithelial monolayers; assay: Transepithelial electrical resistance (TEER) before and after peptide incubation; format: cell-based; conditions: 100 µM peptide, 3 h incubation, N = 3, n = 2
Excerpt: Thereafter, the cells were equilibrated to RT prior measuring the TEER with a chopstick electrode or in an Endohm-24 cup connected to an Epithelial Volt/Ohm meter (both World Precision Instruments, Sarasota, FL, USA). The measured TEER values were subtracted the resistance across an empty Transwell insert and multiplied with the area of the insert (0.33 cm^2) to obtain the standardized unit Ω⋅cm^2.

[10] = NA-1 alone, 3 nmol/g body weight, 1 h after administration, perfused, ICP-MS of selenium, mean (N = 4-6)

Compound: CC[C@H](C)[C@H](NC(=O)[C@H](CO)NC(=O)[C@H](CO)NC(=O)[C@H](CC(C)C)NC(=O)[C@H](CCCCN)NC(=O)[C@H](CC[Se]C)NC(=O)[C@@H](CCCNC(=N)N)NC(=O)[C@@H](CCCNC(=N)N)NC(=O)[C@@H](CCCNC(=N)N)NC(=O)[C@@H](CCC(N)=O)NC(=O)[C@@H](CCCNC(=N)N)NC(=O)[C@@H](CCCNC(=N)N)NC(=O)[C@@H](CCCCN)NC(=O)[C@@H](CCCCN)NC(=O)[C@@H](CCCNC(=N)N)NC(=O)CNC(=O)[C@H](N)Cc1ccc(O)cc1)C(=O)N[C@@H](CCC(=O)O)C(=O)N[C@@H](CO)C(=O)N[C@@H](CC(=O)O)C(=O)N[C@H](C(=O)O)C(C)C [NA-1]
- apparent permeability (Papp) of NA-1 co-administered with Tat (× 10^− 6 cm/sec): 0.09
- apparent permeability (Papp) of NA-1 co-administered with PenShuf (× 10^− 6 cm/sec) [1]: 0.8
- apparent permeability (Papp) of NA-1 co-administered with LowPro (× 10^− 6 cm/sec) [2]: 0.22
- tissue uptake at 1 h [3]: 1.57 %ID/g
- Fold higher amount of NA-1 in duodenum, intravenous vs nasal administration (NMRI mice [4]): 4.5 fold
- Fold higher amount of NA-1 in kidneys, intravenous vs nasal administration (NMRI mice [4]): 9.5 fold
- Fold higher amount of NA-1 in lungs, intravenous vs nasal administration (NMRI mice [4]): 2.8 fold
- Fold higher amount of NA-1 in spleen, intravenous vs nasal administration (NMRI mice [4]): 1.6 fold
- Rank order of off-target tissue distribution (NMRI mice [5]; 3 nmol/g, 1 h, not affected by co-administration with the cell-penetrating peptides): kidney > liver > spleen > duodenum > lung > heart
- NA-1 accumulation in the olfactory bulb, co-administered with LowPro (NMRI mice [5]; NA-1:LowPro 1:1 molar ratio, 3 nmol/g, 1 h, ICP-MS, mean (N = 4-6)): 2.98 % administered dose/g
- NA-1 accumulation in the olfactory bulb, co-administered with PenShuf (NMRI mice [5]; NA-1:PenShuf 1:1 molar ratio, 3 nmol/g, 1 h, ICP-MS, mean (N = 4-6)): 1.63 % administered dose/g
- NA-1 accumulation in the olfactory bulb, co-administered with Tat (NMRI mice [5]; NA-1:Tat 1:1 molar ratio, 3 nmol/g, 1 h, ICP-MS, mean (N = 4-6)): 2.13 % administered dose/g
- NA-1 accumulation in the olfactory bulb (NMRI mice [5]; [10]): 1.38 % administered dose/g
- NA-1 accumulation in the remaining brain (NMRI mice [5]; [10]): 0.54 % administered dose/g
- Combined amount of NA-1 reaching the olfactory bulb and the brain (NMRI mice [5]; NA-1 alone, 1 h, p = 0.15 vs intravenous control): 1.92 % of administered dose/g
- Effect of co-administration with PenShuf on barrier permeation of NA-1 at the 16 h time-point ([6]; 50 µM NA-1 + 50 µM PenShuf vs NA-1 alone, 16 h, ICP-MS, N = 6, p < 0.0001 one-way ANOVA): significantly improved
- Fold better permeation potential of NA-1 compared to 4 KDa FITC-dextran ([6]; ratio of Papp values across primary porcine olfactory monolayers): 3.2 fold

Compound: N=C(N)NCCC[C@H](NC(=O)[C@H](CCCNC(=N)N)NC(=O)[C@H](CCCNC(=N)N)NC(=O)[C@H](CCC(N)=O)NC(=O)[C@H](CCCNC(=N)N)NC(=O)[C@H](CCCNC(=N)N)NC(=O)[C@H](CCCCN)NC(=O)[C@H](CCCCN)NC(=O)[C@H](CCCNC(=N)N)NC(=O)CNC(=O)[C@@H](N)Cc1ccc(O)cc1)C(=O)O [Tat]
- Cellular metabolic activity relative to cell culture media controls [7]: slight decrease

Compound: O=C([O-])c1ccccc1-c1c2ccc(=O)cc-2oc2cc([O-])ccc12.[Na+].[Na+] [sodium fluorescein]
- Fraction of applied compound permeated the barrier upon 24 h of incubation [8]: 29.3%

Compound: RWFKIQMQIRRWKNKK [PenShuf]
- Barrier integrity (TEER before vs after incubation), highest applied concentration [9]: negatively affect the barrier integrity
